Data: the supplement of paper PMC10307832

Legend:
Assay in all cases: relative viability (nuclei count vs DMSO), 5 days (fraction); higher = more cells survive
Linifanib + OSI-027 = compound: Cc1ccc(F)c(NC(=O)Nc2ccc(-c3cccc4[nH]nc(N)c34)cc2)c1 [Linifanib] + COc1cccc2cc(-c3nc([C@H]4CC[C@H](C(=O)O)CC4)n4ncnc(N)c34)[nH]c12 [OSI-027] (partner 0.5 µM)
Method in brief: (§1)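 Lung cancer cell lines, seeded in 1536-well plates, were treated the following day by pin tool with a single drug or with five library-drug doses (not always all listed) in √10 steps on top of a fixed anchor-drug dose. Cells were fixed and nuclei stained in one step after 5 days, and nuclei were counted. Relative viability is the nuclei count for treated wells divided by that for vehicle wells, reported as medians of duplicate plates.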

Linifanib + Foretinib = compound: Cc1ccc(F)c(NC(=O)Nc2ccc(-c3cccc4[nH]nc(N)c34)cc2)c1 [Linifanib] + COc1cc2c(Oc3ccc(NC(=O)C4(C(=O)Nc5ccc(F)cc5)CC4)cc3F)ccnc2cc1OCCCN1CCOCC1 [Foretinib] (partner 0.25 µM)
Method in brief: as §1

Linifanib + Dasatinib = compound: Cc1ccc(F)c(NC(=O)Nc2ccc(-c3cccc4[nH]nc(N)c34)cc2)c1 [Linifanib] + Cc1nc(Nc2ncc(C(=O)Nc3c(C)cccc3Cl)s2)cc(N2CCN(CCO)CC2)n1 [Dasatinib] (partner 0.075 µM)
Method in brief: as §1

Linifanib + Crizotinib = compound: Cc1ccc(F)c(NC(=O)Nc2ccc(-c3cccc4[nH]nc(N)c34)cc2)c1 [Linifanib] + C[C@@H](Oc1cc(-c2cnn(C3CCNCC3)c2)cnc1N)c1c(Cl)ccc(F)c1Cl [Crizotinib] (partner 1 µM)
Method in brief: as §1

Linifanib + Palbociclib = compound: Cc1ccc(F)c(NC(=O)Nc2ccc(-c3cccc4[nH]nc(N)c34)cc2)c1 [Linifanib] + CC(=O)c1c(C)c2cnc(Nc3ccc(N4CCNCC4)cn3)nc2n(C2CCCC2)c1=O [Palbociclib] (partner 0.5 µM)
Method in brief: as §1

Linifanib + Pemetrexed = compound: Cc1ccc(F)c(NC(=O)Nc2ccc(-c3cccc4[nH]nc(N)c34)cc2)c1 [Linifanib] + Nc1nc2[nH]cc(CCc3ccc(C(=O)N[C@@H](CCC(=O)O)C(=O)O)cc3)c2c(=O)[nH]1 [Pemetrexed] (partner 0.2 µM)
Method in brief: as §1

Cell Line	relative viability (Linifanib + OSI-027; first compound 0.03162 µM)	relative viability (Linifanib + OSI-027; first compound 0.1 µM)	relative viability (Linifanib + OSI-027; first compound 0.3162 µM)	relative viability (Linifanib + Foretinib; first compound 0.03162 µM)	relative viability (Linifanib + Foretinib; first compound 0.1 µM)	relative viability (Linifanib + Foretinib; first compound 0.3162 µM)	relative viability (Linifanib + Dasatinib; first compound 0.03162 µM)	relative viability (Linifanib + Dasatinib; first compound 0.1 µM)	relative viability (Linifanib + Dasatinib; first compound 0.3162 µM)	relative viability (Linifanib + Crizotinib; first compound 0.03162 µM)	relative viability (Linifanib + Crizotinib; first compound 0.1 µM)	relative viability (Linifanib + Crizotinib; first compound 0.3162 µM)	relative viability (Linifanib + Palbociclib; first compound 0.03162 µM)	relative viability (Linifanib + Palbociclib; first compound 0.1 µM)	relative viability (Linifanib + Palbociclib; first compound 0.3162 µM)	relative viability (Linifanib + Pemetrexed; first compound 0.03162 µM)	relative viability (Linifanib + Pemetrexed; first compound 0.1 µM)	relative viability (Linifanib + Pemetrexed; first compound 0.3162 µM)
PC-14	0.844	1.08	0.762	0.976	0.951	0.914	0.259	0.262	0.266	0.919	1	0.793	0.444	0.584	0.463	0.145	0.137	0.129
NCI-H647	0.703	0.795	0.587	1.03	1.23	1.12	0.194	0.231	0.183	0.963	1.12	0.857	0.342	0.506	0.484	0.148	0.153	0.203
LCLC-103H	0.514	0.481	0.408	0.629	0.753	0.803	0.434	0.621	0.399	1.05	1.2	0.943	0.474	0.417	0.464	0.477	0.469	0.458
NCI-H2228	0.647	0.747	0.663	1.08	0.889	0.81	0.541	0.556	0.538	0.496	0.508	0.453	0.803	0.85	0.818	0.325	0.355	0.319
NCI-H2085	0.842	0.733	0.758	0.979	1.12	0.806	0.252	0.239	0.268	0.863	1.03	0.818	0.485	0.474	0.463	0.907	0.942	0.917
H3255	0.58	0.606	0.583	1	0.946	0.721	0.457	0.364	0.364	0.865	0.892	0.85	0.358	0.302	0.312	0.555	0.586	0.529
LK-2	0.212	0.21	0.261	1.12	1.33	1.08	0.308	0.349	0.403	0.216	0.195	0.219	0.564	1.01	0.565	0.278	0.318	0.272
NCI-H441	0.588	0.767	0.607	1.08	0.945	1.27	0.646	0.705	0.639	0.715	0.855	0.713	0.222	0.24	0.228	0.274	0.291	0.222
SW 900	0.507	0.808	0.47	0.925	0.987	0.666	0.824	0.548	0.578				0.551	0.603	0.514	0.495	0.496	0.481
PC-3 [JPC-3]	0.702	0.771	0.659	1.05	0.973	0.993	1.04	1.01	0.972	1	1.01	0.986	0.615	0.537	0.487	1.03	1.05	0.94
NCI-H2342	0.638	0.654	0.624	1.18	1.2	1.15	0.333	0.331	0.332				0.594	0.562	0.481	0.791	0.832	0.769
NCI-H1437	0.881	0.895	0.908	1.27	1.25	1.19	0.375	0.407	0.378	1.05	0.849	0.888	0.344	0.331	0.311	0.323	0.339	0.286
HCC-827	0.82	0.93	0.716	1.06	1.11	1.1	0.272	0.32	0.268	0.957	0.957	0.884	0.491	0.544	0.46	0.21	0.265	0.235
HCC-44	0.62	0.596	0.478							0.839	0.831	0.733	0.996	0.955	1.01	0.624	0.552	0.613
NCI-H2126	0.742	0.747	0.665	1.22	1.06	1.2	0.622	0.718	0.622	1.03	1.04	0.975	0.376	0.388	0.379	0.713	0.689	0.714
NCI-H596	0.625	0.879	0.71	0.981	0.783	0.907	0.58	0.612	0.671	0.913	0.902	1.05				0.461	0.535	0.555
NCI-H460	0.682	0.768	0.611	0.963	1.01	0.95	0.577	0.6	0.508	0.95	1.16	0.909	0.133	0.187	0.152	0.0619	0.0626	0.0566
NCI-H1792	0.526	0.701	0.663				0.622	0.774	0.819	0.941	1.06	0.984	0.611	0.666	0.621	1.03	1	0.724

Cell Line	relative viability (Linifanib + OSI-027; first compound 0.03162 µM)	relative viability (Linifanib + OSI-027; first compound 0.1 µM)	relative viability (Linifanib + OSI-027; first compound 0.3162 µM)	relative viability (Linifanib + Foretinib; first compound 0.03162 µM)	relative viability (Linifanib + Foretinib; first compound 0.1 µM)	relative viability (Linifanib + Foretinib; first compound 0.3162 µM)	relative viability (Linifanib + Dasatinib; first compound 0.03162 µM)	relative viability (Linifanib + Dasatinib; first compound 0.1 µM)	relative viability (Linifanib + Dasatinib; first compound 0.3162 µM)	relative viability (Linifanib + Crizotinib; first compound 0.03162 µM)	relative viability (Linifanib + Crizotinib; first compound 0.1 µM)	relative viability (Linifanib + Crizotinib; first compound 0.3162 µM)	relative viability (Linifanib + Palbociclib; first compound 0.03162 µM)	relative viability (Linifanib + Palbociclib; first compound 0.1 µM)	relative viability (Linifanib + Palbociclib; first compound 0.3162 µM)	relative viability (Linifanib + Pemetrexed; first compound 0.03162 µM)	relative viability (Linifanib + Pemetrexed; first compound 0.1 µM)	relative viability (Linifanib + Pemetrexed; first compound 0.3162 µM)
RERF-LC-KJ	0.572	0.654	0.616	0.796	0.932	0.814	0.836	0.983	0.937	0.833	0.778	0.745	1.07	1.1	1.05	0.502	0.494	0.484
COR-L23	0.875	0.786	0.722	0.952	0.951	0.959	0.532	0.647	0.418	0.716	0.657	0.531	0.31	0.298	0.273	0.197	0.19	0.195
UMC-11	0.446	0.465	0.45	0.986	1.16	1.04	0.42	0.491	0.466	0.657	0.604	0.598	0.342	0.309	0.335	0.763	0.772	0.787
SW 1573	0.648	0.665	0.625	0.897	1.21	0.843	0.578	0.931	0.539	0.784	0.91	0.74	0.367	0.448	0.366	0.857	0.879	0.777
NCI-H1395	0.611	0.756	0.573	0.967	1.05	0.998	0.3	0.394	0.405				0.656	0.673	0.691	0.92	1.02	0.825
BEN	0.28	0.295	0.311	0.718	0.774	0.608	0.318	0.34	0.316	0.897	0.924	0.791	0.471	0.521	0.438	0.716	0.866	0.853
SK-MES-1	0.625	0.613	0.595	0.986	1	0.827	0.336	0.455	0.388	1.01	1.03	0.81	0.323	0.331	0.336	1	0.964	0.962
NCI-H1755	0.753	0.827	0.669	0.934	0.912	0.902	0.458	0.406	0.388	0.888	0.957	0.841	0.47	0.461	0.429	0.457	0.465	0.474
NCI-H1793	0.254	0.296	0.267	0.843	0.953	0.734	0.394	0.439	0.406				0.31	0.349	0.292	0.939	1.17	1.07
HCC-15	0.735	0.795	0.7	1.01	1.04	1.09	0.635	0.709	0.725	0.855	0.86	0.779	0.723	0.741	0.842	0.239	0.229	0.232
ChaGo-K-1	0.584	0.602	0.673	1.09	0.935	0.951	0.721	0.727	0.558	1.13	1.14	1.08	0.984	0.881	0.916	0.255	0.262	0.238
LXF-289	0.905	0.829	0.774	1.09	0.975	0.936	0.29	0.288	0.236	0.887	0.855	0.742	0.668	0.612	0.564	0.97	0.906	0.853
NCI-H661	0.726	0.714	0.647	1.07	0.978	0.973	1.07	0.983	0.871	1.12	1.23	0.906	0.437	0.398	0.417	0.932	0.925	0.904
NCI-H358	0.836	1.06	0.748	0.825	0.794	0.717	0.175	0.204	0.205	0.502	0.762	0.51	0.132	0.126	0.114	0.168	0.166	0.155
HOP-62	0.982	0.874	0.767	1.14	1.12	1.02	0.672	0.702	0.701	0.924	1.04	0.968	0.454	0.453	0.465	0.312	0.261	0.295
ABC-1	0.506	0.433	0.381	1.02	1.08	0.921	0.546	0.555	0.589	1.28	1.27	0.996	0.754	0.797	0.787			
NCI-H727	0.642	0.635	0.722	1.03	0.921	0.723	0.449	0.344	0.521	1.01	1.01	0.725	0.596	0.67	0.651			
